molecular target: T1, Human autotaxin enzyme (Homo sapiens, UniProt Q13822); experiment: Evaluation of autotaxin inhibitor, 18:0 Lyso PC / choline assay (Test Example 2); format: biochemical; settings: autotaxin inhibition, IC50 class; read-out: Inhibitor activity
T1 construct: purchased R&D System
Method in brief: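 Human autotaxin in 100 mM Tris-HCl pH 7.5, 150 mM NaCl, 5 mM MgCl2, 0.05% Triton X-100 reacted with 18:0 Lyso PC (200 μM stock) and test compound 2 h at room temperature. Released choline quantified via choline oxidase/peroxidase resorufin fluorescence (ex 531/em 598 nm, 20 min); inhibition vs no-compound and no-enzyme controls, concentration-response curve.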

| IC50 [nM] | SMILES |
| --- | --- |
| ≥ 1000 | N#CC1(NC(=O)Cn2c(CCCC(F)(F)F)nc(N3CCC(C(F)(F)F)CC3)c(F)c2=O)CC1 [Compound I-0241] |
| 100 to 1000 | N#CC1(NC(=O)Cn2c(OCCC(F)(F)F)nc(-c3ccc(Cl)cc3)cc2=O)CC1 [Compound I-0242] |
| 10 to 100 | CSc1nc(-c2ccc(Cl)cc2NC(C)=O)cc(=O)n1CC(=O)NC1(C#N)CC1 [Compound I-0243] |
| 10 to 100 | CC(=O)Nc1cc(Cl)ccc1-c1cc(=O)n(CC(=O)OC(C)(C)C)cn1 [Compound I-0244] |
| < 10 | CC(=O)Nc1cc(Cl)ccc1-c1cc(=O)n(CC(=O)OC(C)(C)C)c(C)n1 [Compound I-0245] |
| ≥ 1000 | CC(=O)Nc1cc(Cl)ccc1-c1cc(=O)n(CC(=O)O)cn1 [Compound I-0246] |
| ≥ 1000 | CC(=O)Nc1cc(Cl)ccc1-c1cc(=O)n(CC(=O)O)c(C)n1 [Compound I-0247] |
| 10 to 100 | CC(=O)Nc1cc(Cl)ccc1-c1cc(=O)n(CC(=O)NC2(C#N)CC2)c(C)n1 [Compound I-0248] |
| 100 to 1000 | CC(=O)Nc1cc(Cl)ccc1-c1cc(=O)n(CC(=O)NC2(C#N)CC2)cn1 [Compound I-0249] |
| 10 to 100 | CSc1nc(-c2ccc(Cl)cc2NC(C)=O)cc(=O)n1CC(=O)NCC(C)(C)O [Compound I-0250] |
| 10 to 100 | CSc1nc(-c2ccc(Cl)cc2NC(C)=O)cc(=O)n1CC(=O)NC(C)(C)C [Compound I-0251] |
| 10 to 100 | CSc1nc(-c2ccc(Cl)cc2NC(C)=O)cc(=O)n1CC(=O)NC(C)(C)CO [Compound I-0252] |
| 100 to 1000 | COC(=O)Cn1c(CCCC(F)(F)F)nc(-c2ccc(C(F)(F)F)nc2)cc1=O [Compound I-0253] |
| 10 to 100 | COC(=O)Cn1c(CCCC(F)(F)F)nc(-c2ccc(C(F)(F)F)cc2)cc1=O [Compound I-0254] |
| ≥ 1000 | O=C(O)Cn1c(CCCC(F)(F)F)nc(-c2ccc(C(F)(F)F)cc2)cc1=O [Compound I-0255] |
| 10 to 100 | CCc1nc(-c2ccc(Cl)cc2NC(C)=O)cc(=O)n1CC(=O)NC1(C#N)CC1 [Compound I-0256] |
| 10 to 100 | N#CC1(NC(=O)Cn2c3nc(cc2=O)-c2ccc(Cl)cc2NC(=O)/C=C/CCO3)CC1 [Compound I-0257] |

same assay, conditions: human autotaxin enzyme, 18:0 Lyso PC substrate, choline assay, room temperature 2 hours; read-out: Inhibitor activity (IC50)

| SMILES | IC50 [nM] |
| --- | --- |
| N#CC1(NC(=O)Cn2c(CCCC(F)(F)F)nc(-c3ccc(Cl)cc3O)cc2=O)CC1 [Compound I-0226] | 100 to 1000 |
| N#Cc1ccc(-c2cc(=O)n(CC(=O)NC3(C#N)CC3)c(CCCC(F)(F)F)n2)cc1 [Compound I-0227] | < 10 |
| N#CC1(NC(=O)Cn2c(CCCC(F)(F)F)nc(-c3ccc(Cl)cc3F)cc2=O)CC1 [Compound I-0228] | < 10 |
| COCCCc1nc(-c2ccc(Cl)cc2)cc(=O)n1CC(=O)NC1(C#N)CC1 [Compound I-0229] | 100 to 1000 |
| COCCCc1nc(-c2ccc(Cl)cc2)cc(=O)n1CC(=O)NCC(C)(C)O [Compound I-0230] | 100 to 1000 |
| COCCCc1nc(-c2ccc(Cl)cc2)cc(=O)n1CC(=O)NCC1(CO)CC1 [Compound I-0231] | 100 to 1000 |
| N#CC1(NC(=O)Cn2c(CCCC(F)(F)F)nc(C3=CCC(C(F)(F)F)CC3)cc2=O)CC1 (centres unmarked) [Compound I-0232] | < 10 |
| N#CC1(NC(=O)Cn2c(CCCC(F)(F)F)nc(-c3ccc(C(F)(F)F)nc3)cc2=O)CC1 [Compound I-0233] | 10 to 100 |
| N#CC1(NC(=O)Cn2c(CCCC(F)(F)F)nc(-c3c(F)cc(Cl)cc3F)cc2=O)CC1 [Compound I-0234] | 10 to 100 |
| N#Cc1ccc(-c2cc(=O)n(CC(=O)NC3(C#N)CC3)c(CCCC(F)(F)F)n2)c(F)c1 [Compound I-0235] | < 10 |
| CC1(C)CN(c2cc(=O)n(CC(=O)NC3(C#N)CC3)c(CCCC(F)(F)F)n2)C1 [Compound I-0236] | ≥ 1000 |
| N#CC1(NC(=O)Cn2c(CCCC(F)(F)F)nc(N3CCC(F)(F)CC3)cc2=O)CC1 [Compound I-0237] | 100 to 1000 |
| COC1CCN(c2cc(=O)n(CC(=O)NC3(C#N)CC3)c(CCCC(F)(F)F)n2)CC1 [Compound I-0238] | 100 to 1000 |
| CC(C)(C)N1CCN(c2cc(=O)n(CC(=O)NC3(C#N)CC3)c(CCCC(F)(F)F)n2)CC1 [Compound I-0239] | ≥ 1000 |
| CC(C)CC1CCN(c2cc(=O)n(CC(=O)NC3(C#N)CC3)c(CCCC(F)(F)F)n2)C1 (centres unmarked) [Compound I-0240] | 100 to 1000 |
| Cc1nc(-c2ccc(C#N)cc2NC(=O)C2CC2)cc(=O)n1CC(=O)O [Compound I-0258] | ≥ 1000 |
| Cc1nc(-c2ccc(Cl)cc2NC(=O)C2CC2)cc(=O)n1CC(=O)O [Compound I-0259] | ≥ 1000 |

| SMILES | IC50 [nM] |
| --- | --- |
| Cc1nc(-c2ccc(C#N)cc2NC(=O)C(C)(C)C)cc(=O)n1CC(=O)O [Compound I-0260] | ≥ 1000 |
| Cc1nc(C2=CCC(C(F)(F)F)CC2)cc(=O)n1CC(=O)NC1(C#N)CC1 (centres unmarked) [Compound I-0261] | 100 to 1000 |
| Cc1nc(C2=CCC(C(F)(F)F)CC2)cc(=O)n1Cc1cccc(C(=O)O)c1 (centres unmarked) [Compound I-0262] | 100 to 1000 |
| COC(=O)Nc1cc(C#N)ccc1-c1cc(=O)n(CC(=O)OC(C)(C)C)c(C)n1 [Compound I-0263] | < 10 |
| O=C(O)Cn1c(CCCC(F)(F)F)nc(-c2ccc(Cl)cc2CO)cc1=O [Compound I-0264] | ≥ 1000 |
| COC(=O)Nc1cc(Cl)ccc1-c1cc(=O)n(CC(=O)NC(C)(C)C)c(C)n1 [Compound I-0265] | 10 to 100 |
| COC(=O)Nc1cc(Cl)ccc1-c1cc(=O)n(CC(=O)OC(C)(C)C)c(C)n1 [Compound I-0266] | < 10 |
| CC(=O)Nc1cc(Cl)ccc1-c1cc(=O)n(Cc2cccc(C(=O)O)c2)c(C)n1 [Compound I-0267] | < 10 |
| Cc1nc(C2=CCC(C(F)(F)F)CC2)cc(=O)n1CC(=O)NCC1(CO)COC1 (centres unmarked) [Compound I-0268] | ≥ 1000 |
| COC(=O)Nc1cc(Cl)ccc1-c1cc(=O)n(CC(=O)N(C)C(C)(C)C)c(C)n1 [Compound I-0269] | 10 to 100 |
| Cc1nc(-c2ccc(F)cc2NC(=O)C2CC2)cc(=O)n1Cc1cccc(C(=O)O)c1 [Compound I-0270] | 10 to 100 |
| Cc1nc(-c2ccc(C#N)cc2NC(=O)C2CC2)cc(=O)n1Cc1cccc(C(=O)O)c1 [Compound I-0271] | < 10 |
| COC(=O)Nc1cc(Cl)ccc1-c1cc(=O)n(CC(=O)N2CCCC2(C)C)c(C)n1 [Compound I-0272] | 10 to 100 |
| Cc1nc(-c2ccc(Cl)cc2NC(=O)C(C)(C)C)cc(=O)n1CC(=O)NC(C)(C)C [Compound I-0273] | 10 to 100 |
| COC(=O)Nc1cc(Cl)ccc1-c1cc(=O)n(CC(=O)N(C)C2(C)COC2)c(C)n1 [Compound I-0274] | 10 to 100 |
| COC(=O)Nc1cc(Cl)ccc1-c1cc(=O)n(CC(=O)NCC2(CO)CC2)c(C)n1 [Compound I-0275] | 10 to 100 |
| COC(=O)Nc1cc(Cl)ccc1-c1cc(=O)n(CC(=O)N(C(C)C)C(C)C)c(C)n1 [Compound I-0276] | 10 to 100 |

The remaining lines, values ahead:

| IC50 [nM] | SMILES |
| --- | --- |
| 10 to 100 | COC(=O)Nc1cc(Cl)ccc1-c1cc(=O)n(CC(=O)N(C)C(C)(C)CO)c(C)n1 [Compound I-0277] |
| 10 to 100 | Cc1nc(-c2ccc(F)cc2NC(=O)C(C)(C)C)cc(=O)n1Cc1cccc(C(=O)O)c1 [Compound I-0278] |
| < 10 | Cc1nc(-c2ccc(Cl)cc2NC(=O)C2CC2)cc(=O)n1Cc1cccc(C(=O)O)c1 [Compound I-0279] |
| 10 to 100 | O=C(O)c1ccc(Cn2c(CCCC(F)(F)F)nc(-c3ccc(Cl)cc3)cc2=O)o1 [Compound I-0280] |
| 100 to 1000 | Cc1nc(-c2ccc(F)cc2NC(=O)C2CC2)cc(=O)n1CC(=O)NCC1(CO)COC1 [Compound I-0281] |
| < 10 | Cc1nc(-c2ccc(C#N)cc2NC(=O)C(C)(C)C)cc(=O)n1Cc1cccc(C(=O)O)c1 [Compound I-0282] |
| 100 to 1000 | CC(C)(C)OC(=O)NCn1c(CCCC(F)(F)F)nc(-c2ccc(Cl)cc2)cc1=O [Compound I-0283] |
| 10 to 100 | CC(C)(C)OC(=O)Cn1c(CCCC(F)(F)F)nc(-c2ccc(Cl)cc2F)cc1=O [Compound I-0284] |
| 10 to 100 | COC(=O)Nc1cc(Cl)ccc1-c1cc(=O)n(CC(=O)N2CCOCC2(C)C)c(C)n1 [Compound I-0285] |
| 10 to 100 | COC(=O)Nc1cc(Cl)ccc1-c1cc(=O)n(CC(=O)NCC2(CO)COC2)c(C)n1 [Compound I-0286] |
| 10 to 100 | Cc1nc(-c2ccc(C#N)cc2NC(=O)C2CC2)cc(=O)n1CC(=O)NCC1(CO)COC1 [Compound I-0287] |
| 10 to 100 | O=C(O)c1cncc(Cn2c(CCCC(F)(F)F)nc(-c3ccc(Cl)cc3)cc2=O)c1 [Compound I-0288] |
| 100 to 1000 | O=C(O)c1cccc(Cn2c(CCCC(F)(F)F)nc(-c3ccc(Cl)cc3)cc2=O)n1 [Compound I-0289] |
| < 10 | Cc1nc(-c2ccc(Cl)cc2NC(=O)C(C)(C)C)cc(=O)n1Cc1cccc(C(=O)O)c1 [Compound I-0290] |
| 10 to 100 | COC(=O)c1ccc(Cn2c(CCCC(F)(F)F)nc(-c3ccc(Cl)cc3)cc2=O)o1 [Compound I-0291] |
| 10 to 100 | O=C(O)c1cc(Cn2c(CCCC(F)(F)F)nc(-c3ccc(Cl)cc3)cc2=O)cs1 [Compound I-0292] |
| 10 to 100 | O=C(O)c1ccc(Cn2c(CCCC(F)(F)F)nc(-c3ccc(Cl)cc3)cc2=O)s1 [Compound I-0293] |
| 10 to 100 | O=C(O)c1nc(Cn2c(CCCC(F)(F)F)nc(-c3ccc(Cl)cc3)cc2=O)cs1 [Compound I-0294] |
| 10 to 100 | CSc1nc(-c2ccc(Cl)cc2NC(=O)C2CC2)cc(=O)n1CC(=O)NC1(C#N)CC1 [Compound I-0295] |
| 100 to 1000 | CC(C)(C)OC(=O)Cn1c(CCCC(F)(F)F)nc(-c2ccc(Cl)cc2C=O)cc1=O [Compound I-0296] |
| 10 to 100 | CN(CC#N)C(=O)Cn1c(CCCC(F)(F)F)nc(-c2ccc(C(F)(F)F)cc2)cc1=O [Compound I-0297] |
| 100 to 1000 | Cc1nc(-c2ccc(F)cc2NC(=O)C(C)(C)C)cc(=O)n1CC(=O)NCC1(CO)COC1 [Compound I-0298] |
| < 10 | CC(C)(C)OC(=O)Cn1c(CCCC(F)(F)F)nc(-c2ccc(Cl)cc2CO)cc1=O [Compound I-0299] |
